Measured values taken from ChEMBL document CHEMBL4043091, “Lead Discovery of Dual G-Quadruplex Stabilizers and Poly(ADP-ribose) Polymerases (PARPs) Inhibitors: A New Avenue in Anticancer Treatment” (J Med Chem, 2017).
Calls of active or inactive are those of the source. The calls are words filed in the database; no cut-off is given here.

Experiments:
[1] = species on record: Homo sapiens; test: Binding affinity to human telomeric 26 G-quadruplex DNA assessed as change in melting temperature at 10 molequiv after 30 mins by CD spectra analysis
[2] = species on record: Homo sapiens; test: Binding affinity to human telomeric 23 G-quadruplex DNA assessed as change in melting temperature at 10 molequiv after 30 mins by CD spectra analysis
[3] = species on record: Homo sapiens; test: Binding affinity to human telomeric 23-p G-quadruplex DNA assessed as change in melting temperature at 10 molequiv after 30 mins by CD spectra analysis
[4] = species on record: Homo sapiens; test: Binding affinity to human Cy5-labeled telomeric 26 G-quadruplex DNA at 10^-1 to 10^4 nM by […] analysis
[5] = species on record: Homo sapiens; test: Binding affinity to G-quadruplex DNA in human BJeH-LT cells at 1 uM after 24 hrs by hoechst staining-based immunofluorescence analysis; format: cell-based
[6] = test system: BJeH-LT; test: Induction of DNA damage in human BJeH-LT cells assessed as increase in gamma-H2AX foci formation at 1 uM after 24 hrs followed by compound washout by hoechst staining-based immunofluorescence analysis; format: functional, cell-based
[7] = test system: BJeH-LT; test: Induction of DNA damage in human BJeH-LT cells assessed as increase in gamma-H2AX foci formation at >1 uM after 24 hrs by hoechst staining-based immunofluorescence analysis; format: functional, cell-based
[8] = test system: BJeH-LT; test: Induction of DNA damage in human BJeH-LT cells assessed as increase in telomere's dysfunction induced foci positive nuclei at 1 uM after 24 hrs by hoechst staining-based immunofluorescence analysis; format: functional, cell-based
[9] = test system: BJeH-LT; test: Induction of DNA damage in human BJeH-LT cells assessed as increase in gamma-H2AX foci formation at 1 uM after 24 hrs by hoechst staining-based immunofluorescence analysis; format: functional, cell-based
[10] = test system: hTERT-BJ; test: Induction of DNA damage in human hTERT-BJ cells assessed as increase in gamma-H2AX foci formation at 1 uM after 24 hrs by hoechst staining-based immunofluorescence analysis; format: cell-based
[11] = test system: DLD-1; test: Antiproliferative activity against human DLD1 cells deficient BRCA2 up to 2 uM after 6 days by MTT assay; format: functional, cell-based
[12] = test system: DLD-1; test: Antiproliferative activity against human DLD1 cells harboring BRCA2 up to 2 uM after 6 days by MTT assay; format: functional, cell-based
[13] = species on record: Homo sapiens; test: Inhibition of PARP in human BJeH-LT cells assessed as reduction of Poly(ADP-ribosyl)ation at 1 uM preincubated for 16 hrs followed by [3H]NAD addition measured after 10 mins by liquid scintillation counting method; format: cell-based
[14] = biological target: Poly [ADP-ribose] polymerase 1 (Homo sapiens, UniProt P09874); test: Inhibition of recombinant human PARP1 expressed in Escherichia coli assessed as reduction of Poly(ADP-ribosyl)ation after 15 mins in presence of [3H]NAD+/cleaved DNA/histones by scintillation counting method
Poly [ADP-ribose] polymerase 1, sequence (P09874 whole entry): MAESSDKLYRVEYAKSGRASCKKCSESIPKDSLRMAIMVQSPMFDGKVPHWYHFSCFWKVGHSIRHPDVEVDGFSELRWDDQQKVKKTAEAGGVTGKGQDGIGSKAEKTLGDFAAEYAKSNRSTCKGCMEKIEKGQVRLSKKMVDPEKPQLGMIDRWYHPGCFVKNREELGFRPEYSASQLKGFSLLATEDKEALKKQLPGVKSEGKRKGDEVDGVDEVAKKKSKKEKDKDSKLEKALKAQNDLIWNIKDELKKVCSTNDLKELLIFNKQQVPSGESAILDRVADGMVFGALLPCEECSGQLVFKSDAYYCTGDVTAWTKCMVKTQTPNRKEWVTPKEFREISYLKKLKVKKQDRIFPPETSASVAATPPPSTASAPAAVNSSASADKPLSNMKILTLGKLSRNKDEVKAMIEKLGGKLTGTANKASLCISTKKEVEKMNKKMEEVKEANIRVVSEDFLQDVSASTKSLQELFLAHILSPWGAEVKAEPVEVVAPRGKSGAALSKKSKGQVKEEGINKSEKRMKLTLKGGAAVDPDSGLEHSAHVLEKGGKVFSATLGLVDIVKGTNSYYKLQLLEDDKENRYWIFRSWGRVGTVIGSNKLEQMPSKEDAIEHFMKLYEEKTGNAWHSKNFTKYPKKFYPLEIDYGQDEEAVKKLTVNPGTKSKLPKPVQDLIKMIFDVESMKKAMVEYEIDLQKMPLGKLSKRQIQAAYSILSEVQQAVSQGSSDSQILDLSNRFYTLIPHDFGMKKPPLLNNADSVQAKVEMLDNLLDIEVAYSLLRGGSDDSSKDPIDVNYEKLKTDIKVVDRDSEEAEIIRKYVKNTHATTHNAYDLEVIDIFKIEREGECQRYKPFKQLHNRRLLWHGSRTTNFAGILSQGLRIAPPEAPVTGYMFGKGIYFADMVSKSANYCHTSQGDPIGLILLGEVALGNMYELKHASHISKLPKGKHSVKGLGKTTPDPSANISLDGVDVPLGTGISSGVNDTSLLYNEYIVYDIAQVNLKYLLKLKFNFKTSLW

[15] = species on record: Homo sapiens; test: Binding affinity to human telomeric 23-p G-quadruplex DNA assessed as increase in melting temperature up to 240 uM after 30 mins by CD spectra analysis
[16] = Binding affinity to 12-mer duplex DNA (unknown origin) at 10 molequiv after 30 mins by CD spectra analysis
[17] = species on record: Homo sapiens; test: Binding affinity to human telomeric 26 G-quadruplex DNA assessed as increase in melting temperature up to 300 uM after 30 mins by CD spectra analysis
[18] = species on record: Homo sapiens; test: Binding affinity to human telomeric 23-p G-quadruplex DNA assessed as increase in melting temperature at lower concentration after 30 mins by CD spectra analysis
[19] = Binding affinity to human Cy5-labeled telomeric 26 G-quadruplex DNA by […] analysis
[20] = Binding affinity to 5'-FAM/3'-TAMRA labelled F21T G-quadruplex DNA (unknown origin) assessed as change in melting temperature at 4 uM by FRET assay
[21] = Binding affinity to 5'-FAM/3'-TAMRA labelled F21T G-quadruplex DNA (unknown origin) assessed as increase in melting temperature at 4 uM in presence of 5 to 10 uM 12-mer duplex DNA by FRET assay
[22] = species on record: Homo sapiens; test: Binding affinity to human telomeric 23 G-quadruplex DNA assessed as increase in melting temperature up to 300 uM after 30 mins by CD spectra analysis

Row | SMILES | ΔTm [1] [°C] | ΔTm [2] [°C] | ΔTm [3] [°C] | Activity [5] | Activity [6] | Activity [8] | Activity [9] | Activity [10] | other results
1 | Cc1nc2c(O)cccc2c(=O)[nH]1 | 1.1 | 0 | 2.4 |  |  |  |  |  | 
2 | COC(=O)c1cc2c(=O)n(C)c3ccccc3c2s1 | 0.4 | 0.4 | 2.4 | Active | inactive |  |  |  | Activity [4]: inactive; Activity [7]: inactive
3 | COC(=O)c1cc2c(=O)[nH]c3ccccc3c2s1 | 2.2 | 1.5 | 1.9 | Active | inactive | inactive | Active | Non-Toxic | 
4 | CN1C(=O)C2C=C(C(=O)NCCN3CCC(Cc4ccccc4)CC3)SC2c2ccccc21 (stereo unspecified) |  |  |  | Active |  | Active |  |  | Activity [11]: Active; Activity [12]: Active
5 | O=C(NCCN1CCC(Cc2ccccc2)CC1)c1cc2[nH]c(=O)c3ccccc3c2s1 | 2 | 0.7 | 4.2 |  | inactive |  |  |  | inhibition [13]: Active; IC50 [14]: 223 nM
6 | COC1CCN(C(=O)c2cc(Cc3n[nH]c(=O)c4ccccc34)ccc2F)CC1 | 1.3 | 0.1 | 2.6 | inactive |  |  |  |  | 
7 | COC(=O)c1cc2c(s1)c1ccccc1c(=O)n2C | 1.4 | -0.8 | 1.4 | Active | inactive | inactive | Active | Non-Toxic | 
8 | Cn1c(=O)c2ccccc2c2sc(C(=O)NCCN3CCC(Cc4ccccc4)CC3)cc21 | 3 | 1.6 | 10.5 | Active | inactive | Active | Active | Non-Toxic | Activity [15]: Active; Activity [16]: inactive
9 | O=c1[nH]c2sccc2c2ccccc12 |  |  |  | inactive |  |  | inactive |  | Activity [11]: inactive; Activity [12]: inactive
10 | O=C(NCCN1CCC(Cc2ccccc2)CC1)c1cc2c(=O)[nH]c3ccccc3c2s1 | 2.6 | 0.3 | 7.7 | Active | inactive | Active | Active | Non-Toxic | Activity [15]: Active; Activity [16]: inactive
11 | Cn1c(=O)c2cc(C(=O)NCCN3CCC(Cc4ccccc4)CC3)sc2c2ccccc21 | 5.5 | 5.8 | 7 | Active | inactive | Active | Active | Non-Toxic | Activity [17]: Active; Activity [18]: Active; Kd [19]: 240 nM; ΔTm [20]: 4.5 °C; Activity [21]: Active; Activity [22]: Active; Activity [16]: inactive
12 | COC(=O)c1cc2[nH]c(=O)c3ccccc3c2s1 | 0.9 | 0.9 | 3 | Active | inactive |  |  |  | Activity [7]: inactive
13 | Oc1nc(-c2ccc(C(F)(F)F)cc2)nc2c1CSCC2 |  |  |  | inactive |  |  |  |  | 
